Laboratory results published in PMC3942486, “The Ansamycin Antibiotic, Rifamycin SV, Inhibits BCL6 Transcriptional Repression and Forms a Complex with the BCL6-BTB/POZ Domain” (PLoS ONE, 2014).

Assays:
Assay type in all cases: binding
[1] = target: T1, BCL6-POZ domain (Homo sapiens, UniProt P41182, C8Q/C67R/C84N); assay: 1H-15N TROSY-HSQC NMR chemical shift perturbation
T1 construct: POZ domain (residues 7 to 128)

[2] = target: T1, BCL6-POZ domain; assay: 1H-15N TROSY-HSQC NMR chemical shift perturbation; also relieves BCL6 repression in HEK293T luciferase reporter assay
[3] = target: T2, BCL6-POZ domain (Homo sapiens, UniProt P41182, C67R/C84N/C8Q); assay: X-ray crystal structure ([…] Å); 1H-15N TROSY-HSQC NMR titration
T2 construct: POZ domain (residues 7 to 128)

[4] = target: T1, BCL6-POZ domain; assay: 1H-15N TROSY-HSQC NMR chemical shift perturbation (weakest of the series)

CO[C@H]1/C=C/O[C@@]2(C)Oc3c(C)c(O)c4c(O)c(c(/C=N/N5CCN(C6CCCC6)CC5)c(O)c4c3C2=O)NC(=O)/C(C)=C\C=C\[C@H](C)[C@H](O)[C@@H](C)[C@@H](O)[C@@H](C)[C@H](OC(C)=O)[C@@H]1C [rifapentine]
1H-15N TROSY-HSQC NMR chemical shift perturbation [1]: order of binding from weakest to strongest was: rifaximin, rifapentine, 3-formyl rifamycin, rifampicin, rifamycin SV and rifabutin

CO[C@H]1/C=C/O[C@@]2(C)Oc3c(C)c(O)c4c(O)c(cc(O)c4c3C2=O)NC(=O)/C(C)=C\C=C\[C@H](C)[C@H](O)[C@@H](C)[C@@H](O)[C@@H](C)[C@H](OC(C)=O)[C@@H]1C [rifamycin SV]
1H-15N TROSY-HSQC NMR chemical shift perturbation; also relieves BCL6 repression [2]: resulted in a subset of peaks shifting in a concentration dependent manner

CO[C@H]1/C=C/O[C@@]2(C)Oc3c(C)c(O)c4c(c3C2=O)C2=NC3(CCN(CC(C)C)CC3)NC2=C(NC(=O)/C(C)=C\C=C\[C@H](C)[C@H](O)[C@@H](C)[C@@H](O)[C@@H](C)[C@H](OC(C)=O)[C@@H]1C)C4=O [rifabutin]
Kd [3]: ~1000 µM

CO[C@H]1/C=C/O[C@@]2(C)Oc3c(C)c(O)c4c(O)c(c(/C=N/N5CCN(C)CC5)c(O)c4c3C2=O)NC(=O)/C(C)=C\C=C\[C@H](C)[C@H](O)[C@@H](C)[C@@H](O)[C@@H](C)[C@H](OC(C)=O)[C@@H]1C [rifampicin]
1H-15N TROSY-HSQC NMR chemical shift perturbation [1]: These derivatives all caused spectral changes of varying magnitude with the greatest shifts caused by rifabutin

CO[C@H]1/C=C/O[C@@]2(C)Oc3c(C)c(O)c4c(O)c(c5c(nc6cc(C)ccn65)c4c3C2=O)NC(=O)/C(C)=C\C=C\[C@H](C)[C@H](O)[C@@H](C)[C@@H](O)[C@@H](C)[C@H](OC(C)=O)[C@@H]1C [rifaximin]
1H-15N TROSY-HSQC NMR chemical shift perturbation (weakest of the series) [4]: order of binding from weakest to strongest was: rifaximin, rifapentine, 3-formyl rifamycin, rifampicin, rifamycin SV and rifabutin
